Assay results: publication PMC4865535, “Effect of carbamazepine on dolutegravir pharmacokinetics and dosing recommendation” (European Journal of Clinical Pharmacology, 2016)
“And” between values parts separate entries of the source, which are not always exact repeats. Equal values may be shown once. Read-outs that look alike come from different tables or passages of the source. Each block holds one compound with its values, some of them ahead of it.

Columns and labels:
[1] = Safety evaluations (adverse events, laboratory tests) in the crossover study; format: in vivo, human; settings: for Subjects who experienced at least one AE: by treatment period; for Drug-related adverse events: ALT increased / Drug-related adverse events: Any event / Drug-related adverse events: Asthenia / Drug-related adverse events: Cognitive disorder / Drug-related adverse events: Drug reaction with eosinophilia and systemic symptoms / Drug-related adverse events: Fatigue / Drug-related adverse events: Headache / Drug-related adverse events: Hyponatremia / Drug-related adverse events: Leukopenia / Drug-related adverse events: Lymphopenia / Drug-related adverse events: Nausea / Drug-related adverse events: Pain in extremity / Drug-related adverse events: Photosensitivity reaction / Drug-related adverse events: Pyrexia / Drug-related adverse events: Rash maculopapular / Drug-related adverse events: Thirst / Drug-related adverse events: Thrombocytopenia: DTG alone n = 16, CBZ alone n = 16, DTG + CBZ n = 14
Protocol: Safety evaluations included the monitoring of adverse events (AEs), physical examinations, clinical chemistry laboratory tests, vital signs, and electrocardiograms. Additionally, assessment of Columbia suicide severity rating scale scores was performed throughout the study, because CBZ exposure (along with exposure to several other AEDs) has been associated with increased risk of suicidal ideation and depression.

[2] = parameters: method as in ref 11 = [11]; 11. Tegretol ® (carbamazepine) [package insert]. East Hanover: Novartis; 2014; settings: cited from earlier work
[3] = test system: UGT2B7; parameters: method as in PMID 23132334; settings: in vitro; cited from earlier work
[4] = test system: CYP3A4; parameters: method as in ref 1 = [1]; 1. Tivicay ® (dolutegravir) [package insert]. Research Triangle Park: ViiV Healthcare; 2014; settings: midazolam as probe substrate for CYP3A4, healthy subjects; cited from earlier work
[5] = test system: MRP2; parameters: method as in PMID 23132334; settings: in vitro; cited from earlier work
[6] = test system: OATP1B1; parameters: method as in PMID 23132334; settings: in vitro; cited from earlier work
[7] = test system: P-glycoprotein (P-gp); parameters: method as in PMID 23132334; settings: cited from earlier work
[8] = test system: CYP2B6; parameters: method as in PMID 23132334; settings: in vitro; cited from earlier work
[9] = Steady-state plasma DTG pharmacokinetics with and without CBZ (phase I open-label fixed-sequence crossover study); format: in vivo, human; settings: for half-life: read-out: t1/2 (terminal elimination half-life) of DTG, geometric mean (CV%) (converted)
Protocol: This was a phase I, single-site, open-label, fixed-sequence, crossover study with three treatment periods to evaluate the effect of an oral extended-release formulation of CBZ on the steady-state PK of orally administered DTG in 16 healthy subjects. The study was conducted in accordance with the principles of the Declaration of Helsinki. A written informed consent was obtained from all subjects, and the protocol was approved by the institutional review board of the study site. The trial was registered at ClinicalTrials.gov (NCT01967771; protocol number: 200901). During period 1, subjects received DTG 50 mg once daily as a single agent for days 1 to 5. During period 2, subjects received CBZ alone and the dose was escalated: 100 mg twice daily for days 1 to 3, 200 mg twice daily for days 4 to 6, and 300 mg twice daily for days 7 to 16. During period 3, DTG 50 mg once daily was co-administered with CBZ 300 mg twice daily for days 1 to 5. There was no washout between treatment periods. As CBZ is recommended to be given with food per product information, all doses in the testing unit, including those on PK collection days, were administered orally in the morning 30 min after the start of the moderate-fat meal, and subjects were asked to do the same when dosing outside the unit. Subjects were housed at the clinical research unit from period 1, day 1, until the morning of period 2, day 8, as well as from period 2, day 16, through period 3, day 6. Phone call reminders and pill counts were employed when subjects self-administered CBZ as outpatients during period 2, days 8 to 16. […] Plasma samples were analyzed for DTG by PPD, Inc. (Middleton, WI) using a validated analytical method based on protein precipitation with acetonitrile containing the stable isotope-labeled internal standard (GSK1349572-d7-^15N), followed by high-performance liquid chromatography/tandem mass spectrometry analysis. The lower limit of quantification for DTG in plasma was 20 ng/mL, and the upper limit of quantification was 20,000 ng/mL. Precision and accuracy were evaluated by replicate analyses of human plasma quality control samples prepared at five concentrations: 60, 160, 640, 2400, and 15,200 ng/mL. Precision, measured as the percent coefficient of variation, ranged from 3.0 to 5.9 % across the quality control range. […] Both were within acceptance standards of 15 %. A non-compartmental PK analysis of the DTG concentration-time data was conducted by Phast Clinical Data, Inc. (Raleigh, NC). Pharmacokinetic analyses of plasma DTG concentration-time data were analyzed using Model 200 (for extravascular administration) of Phoenix WinNonlin version 6.3 (Pharsight Corporation, St. Louis, MO). Plasma PK parameters for DTG were calculated using actual elapsed times from dosing. The individual PK parameters that were determined included area under the curve from time zero to the end of the dosing interval (AUC(0-τ)), maximum observed plasma concentration (Cmax), plasma concentration at the end of the dosing interval (Cτ), oral clearance, and terminal half-life. This study was designed to estimate the magnitude of drug-interaction effect of CBZ on the PK parameters of DTG. No formal hypothesis was tested. Instead, an estimation approach was used to evaluate the effect of CBZ on DTG PK. Pharmacokinetic parameters were log-transformed and analyzed by analysis of variance to determine the point estimate and associated 90 % confidence intervals for the difference between test treatment (DTG + CBZ) and reference treatment (DTG alone). These values were then back-transformed to calculate the point and interval estimates for test-to-reference treatment ratios on the original scale. Geometric least-squares mean ratios and 90 % confidence intervals were generated by the mixed-effect model for within-subject treatment comparisons.

[10] = test system: CYP isozymes; parameters: method as in PMID 23132334; settings: in vitro; cited from earlier work
[11] = test system: breast cancer resistance protein; parameters: method as in PMID 23132334; settings: in vitro; cited from earlier work
[12] = test system: OATP1B3; parameters: method as in PMID 23132334; settings: in vitro; cited from earlier work
[13] = test system: CYP1A2; parameters: method as in PMID 23132334; settings: in vitro; cited from earlier work
[14] = test system: CYP3A4; parameters: method as in PMID 23132334; settings: in vitro; cited from earlier work
[15] = test system: cytochrome P450 (CYP) 3A4; parameters: method as in PMID 23132334; settings: minor component; primarily metabolized by UGT1A1; cited from earlier work
[16] = test system: P-gp; parameters: method as in PMID 23132334; settings: in vitro; cited from earlier work
[17] = parameters: method as in PMID 25146692, PMID 23075918; settings: DTG co-administered with tipranavir/ritonavir, efavirenz, and rifampin; cited from earlier work
[18] = test system: UGT1A1; parameters: method as in PMID 23132334; settings: in vitro; cited from earlier work
[19] = DTG 50 mg once daily alone, day 5 of period 1, n = 16
[20] = DTG co-administered with CBZ vs DTG alone
[21] = DTG co-administered with CBZ, 14 subjects with PK results in both periods

Compound: NC(=O)N1c2ccccc2C=Cc2ccccc21 [CBZ, Carbamazepine]
Subjects who experienced at least one AE ([1]; healthy subjects): six
Drug-related adverse events: ALT increased ([1]; healthy subjects): 1 (6) n (%)
Drug-related adverse events: Any event ([1]; healthy subjects): 6 (38) n (%)
Drug-related adverse events: Asthenia ([1]; healthy subjects): 1 (6) n (%)
Drug-related adverse events: Cognitive disorder ([1]; healthy subjects): 1 (6) n (%)
Drug-related adverse events: Drug reaction with eosinophilia and systemic symptoms ([1]; healthy subjects): 1 (6) n (%)
Drug-related adverse events: Fatigue ([1]; healthy subjects): 0 n (%)
Drug-related adverse events: Headache ([1]; healthy subjects): 2 (13) n (%)
Drug-related adverse events: Hyponatremia ([1]; healthy subjects): 1 (6) n (%)
Drug-related adverse events: Leukopenia ([1]; healthy subjects): 1 (6) n (%)
Drug-related adverse events: Lymphopenia ([1]; healthy subjects): 1 (6) n (%)
Drug-related adverse events: Nausea ([1]; healthy subjects): 1 (6) n (%)
Drug-related adverse events: Pain in extremity ([1]; healthy subjects): 1 (6) n (%)
Drug-related adverse events: Photosensitivity reaction ([1]; healthy subjects): 0 n (%)
Drug-related adverse events: Pyrexia ([1]; healthy subjects): 1 (6) n (%)
Drug-related adverse events: Rash maculopapular ([1]; healthy subjects): 1 (6) n (%)
Drug-related adverse events: Thirst ([1]; healthy subjects): 1 (6) n (%)
Drug-related adverse events: Thrombocytopenia ([1]; healthy subjects): 2 (13) n (%)
White blood cell count (decrease) ([1]; one subject with suspected grade 2 hypersensitivity syndrome on 300 mg CBZ twice daily, period 2, baseline 8800 cells/mm^3): 3800 cells/mm^3
Subjects permanently discontinued because of AEs ([1]; period 2 (CBZ alone)): Two
Platelet count (low) ([1]; same subject on 300 mg CBZ twice daily, 159,000 3 days before): 78,000 cells/mm^3
ALT level (high) ([1]; same subject on 300 mg CBZ twice daily, grade 2): 151 IU/L
half-life ([2]; following chronic dosing): 12 to 17 h
half-life ([2]; following single dosing): 25 to 65 h

CL/F (oral clearance) of DTG, geometric mean (CV%) [9, 19]: 0.929 (21.4) L/h
Cτ of plasma DTG, geometric mean (CV%) [9, 19]: 1.20 (39.1) μg/mL
Increase of dolutegravir clearance [9, 20]: 95%
Reduction of geometric mean AUC(0-τ) of DTG [9, 20]: 49%
Reduction of geometric mean Cmax of DTG [9, 20]: 33%
Reduction of geometric mean Cτ of DTG [9, 20]: 73% and ~ 73%
Reduction in AUC(0-τ) on an individual subject basis [9, 21]: 27 to 58%
Reduction in Cτ on an individual subject basis [9, 21]: 53 to 82%
half-life ([9]; human, plasma, oral, DTG 50 mg once daily + CBZ 300 mg twice daily, day 5 of period 3, n = 14): 7.31 h
Cmax ([9]; human, plasma, oral, DTG 50 mg once daily alone, day 5 of period 1, n = 16, read-out: Cmax of plasma DTG, geometric mean (CV%)): 4160 ng/mL
half-life ([9]; human, plasma, oral, DTG 50 mg once daily alone, day 5 of period 1, n = 16): 12.9 h
AUC ([9]; human, plasma, DTG 50 mg once daily alone, day 5 of period 1, oral with moderate-fat meal, healthy subjects, n = 16, read-out: AUC(0-τ) of plasma DTG, geometric mean (CV%)): 53800 ng·h/mL
Compound: C[C@@H]1CCO[C@H]2Cn3cc(C(=O)NCc4ccc(F)cc4F)c(=O)c(O)c3C(=O)N12 [DTG, Dolutegravir]
Direct inhibition of UGT2B7 [3]: minimal or no direct inhibition
Effect on midazolam exposure [4]: no significant effect
Direct inhibition of MRP2 [5]: minimal or no direct inhibition
Direct inhibition of OATP1B1 [6]: minimal or no direct inhibition
Substrate of P-gp [7]: substrate of P-glycoprotein
Induction of CYP2B6 [8]: not an inducer
Direct inhibition of CYP isozymes [10]: minimal or no direct inhibition
Direct inhibition of breast cancer resistance protein [11]: minimal or no direct inhibition
Direct inhibition of OATP1B3 [12]: minimal or no direct inhibition
Induction of CYP1A2 [13]: not an inducer
Induction of CYP3A4 [14]: not an inducer
Component of metabolism via CYP3A4 [15]: approximately 10%
Tolerability ([1]; DTG alone and co-administered with CBZ, healthy subjects): well tolerated
Subjects who experienced at least one AE ([1]; healthy subjects): No subjects experienced AEs
Drug-related adverse events: ALT increased ([1]; healthy subjects): 0 n (%)
Drug-related adverse events: Any event ([1]; healthy subjects): 0 n (%)
Drug-related adverse events: Asthenia ([1]; healthy subjects): 0 n (%)
Drug-related adverse events: Cognitive disorder ([1]; healthy subjects): 0 n (%)
Drug-related adverse events: Drug reaction with eosinophilia and systemic symptoms ([1]; healthy subjects): 0 n (%)
Drug-related adverse events: Fatigue ([1]; healthy subjects): 0 n (%)
Drug-related adverse events: Headache ([1]; healthy subjects): 0 n (%)
Drug-related adverse events: Hyponatremia ([1]; healthy subjects): 0 n (%)
Drug-related adverse events: Leukopenia ([1]; healthy subjects): 0 n (%)
Drug-related adverse events: Lymphopenia ([1]; healthy subjects): 0 n (%)
Drug-related adverse events: Nausea ([1]; healthy subjects): 0 n (%)
Drug-related adverse events: Pain in extremity ([1]; healthy subjects): 0 n (%)
Drug-related adverse events: Photosensitivity reaction ([1]; healthy subjects): 0 n (%)
Drug-related adverse events: Pyrexia ([1]; healthy subjects): 0 n (%)
Drug-related adverse events: Rash maculopapular ([1]; healthy subjects): 0 n (%)
Drug-related adverse events: Thirst ([1]; healthy subjects): 0 n (%)
Drug-related adverse events: Thrombocytopenia ([1]; healthy subjects): 0 n (%)
Direct inhibition of P-gp [16]: minimal or no direct inhibition
Reduction of DTG AUC(0-τ) [17]: 36 to 49%
Reduction of DTG Cτ [17]: 72 to 76%
Direct inhibition of UGT1A1 [18]: minimal or no direct inhibition
